Paper PMC3743763, “Conformational Changes in the Lower Palm Domain of ASIC1a Contribute to Desensitization and RFamide Modulation” (PLoS ONE, 2013)
Residues, ends and D or L forms follow the SMILES beside them.

Columns and labels:
wildtype ASIC1a = test: MTSET exposure, two-electrode voltage clamp in Xenopus oocytes; type: cell-based, human
Method: (§1) The Stratagene QuikChange® site-directed mutagenesis kit (Cedar Creek, TX) was used to introduce point mutations into the human ASIC1a cDNA (GENBANK accession number NM_001095) within the pMT3 expression vector. Mutations were confirmed by DNA sequencing at the Plant-Microbe Genomics Facility at The Ohio State University and high quality plasmid DNA was prepared for injection using Qiagen (Valencia, CA) Midi prep kits. Female Xenopus laevis were purchased from Xenopus I (Dexter, MI) and Xenopus oocytes were isolated using standard procedures. This work was implemented in accordance with the Guide for the Care and Use of Laboratory Animals of the National Institutes of Health and approved by the Institutional Animal Care and Use Committee of The Ohio State University (protocol # 2009A0161-R1). The oocyte removal surgery was performed under tricaine methanesulfonate (MS222) anesthesia and all efforts were made to minimize suffering. Ovarian lobes were removed and digested for 1.5-2 hours at room temperature with 1.2 mg/ml collagenase in Modified Barth’s solution lacking calcium (24 mM NaHCO3, 88 mM NaCl, 15 mM HEPES, 1 mM KCl, 0.8 mM MgSO4, 125 units/liter penicillin/streptomycin) to separate individual oocytes and remove follicular membranes. Healthy stage IV and V oocytes were selected and maintained in Modified Barth’s solution containing calcium (0.4 mM CaCl2 and 0. 3 mM Ca(NO3)2). The nuclei of isolated oocytes were injected with ~5 ng of a 100 ng/µl stock of wildtype or mutant ASIC1a expression plasmids using a PV820 pneumatic picopump (World Precision Instruments, Sarasota, FL). Oocytes were incubated at 18 °C for 18-96 hours before experiments were performed.
The two-electrode voltage clamp technique was used to measure whole cell currents from Xenopus oocytes heterologously expressing ASIC1a channels as described. Electrodes were pulled using a Sutter P-97 micropipette puller (Sutter Instrument Co., Novato, CT) and filled with 3 M KCl (pipette resistance of 0.5–2 MΩ). Oocyte recordings were done in a modified RC-Z3 250 µl oocyte recording chamber (Warner Instruments, Hamden, CT). Data were acquired using an Oocyte Clamp OC-725 Amplifier (Warner Instruments, Hamden, CT) and a Powerlab 4SP digitizer with CHART5 software (ADI Instruments, Colorado Springs, CO). […]
(§2) In order to obtain the pH dependence of activation, basal pH was maintained at pH 7.4. […] Peak current amplitude was measured for each test pH and normalized to the average peak amplitude of flanking pH 5.0 currents to minimize the impact of potential tachyphylaxis. […] As before, maximal currents were measured before and after test conditioning pH to minimize the effect of possible tachyphylaxis of proton-gated current. […]

human ASIC1a L280C [1] = target: T1, human ASIC1a L280C (Homo sapiens, UniProt P78348, L280C); test: Peptide-MTSET competition (MTSET modification in presence of peptide, residual current read-out); type: cell-based; conditions: 300 µM MTSET at pH 7.4 with vehicle
T1 construct: expressed in transfected cells; host or cells: Xenopus laevis oocytes (nuclear injection of pMT3 expression plasmid)
T1 sequence (P78348 1-528 L280C): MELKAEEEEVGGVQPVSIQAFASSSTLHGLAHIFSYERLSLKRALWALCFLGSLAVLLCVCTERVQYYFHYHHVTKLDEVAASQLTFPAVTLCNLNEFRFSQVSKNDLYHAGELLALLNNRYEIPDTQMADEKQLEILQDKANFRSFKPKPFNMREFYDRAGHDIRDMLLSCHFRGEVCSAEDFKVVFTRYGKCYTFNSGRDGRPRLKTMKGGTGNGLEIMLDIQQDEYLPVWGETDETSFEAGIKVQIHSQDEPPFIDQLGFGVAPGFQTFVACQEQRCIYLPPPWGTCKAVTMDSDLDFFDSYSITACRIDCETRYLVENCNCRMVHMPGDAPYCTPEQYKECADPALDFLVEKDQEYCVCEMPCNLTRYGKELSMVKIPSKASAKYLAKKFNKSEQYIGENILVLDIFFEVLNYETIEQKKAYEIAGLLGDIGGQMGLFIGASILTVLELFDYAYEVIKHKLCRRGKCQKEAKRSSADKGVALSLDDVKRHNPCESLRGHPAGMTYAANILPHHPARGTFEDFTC
Method: The Stratagene QuikChange® site-directed mutagenesis kit (Cedar Creek, TX) was used to introduce point mutations into the human ASIC1a cDNA (GENBANK accession number NM_001095) within the pMT3 expression vector. Mutations were confirmed by DNA sequencing at the Plant-Microbe Genomics Facility at The Ohio State University and high quality plasmid DNA was prepared for injection using Qiagen (Valencia, CA) Midi prep kits. Female Xenopus laevis were purchased from Xenopus I (Dexter, MI) and Xenopus oocytes were isolated using standard procedures. This work was implemented in accordance with the Guide for the Care and Use of Laboratory Animals of the National Institutes of Health and approved by the Institutional Animal Care and Use Committee of The Ohio State University (protocol # 2009A0161-R1). The oocyte removal surgery was performed under tricaine methanesulfonate (MS222) anesthesia and all efforts were made to minimize suffering. […]
Vehicle or 100 µM peptide was applied for 1 minute at pH 7.4. […] Before residual current was measured, oocytes were washed with at least 50 mL of pH 7.4 over 10 minutes in order to remove peptides. […]

human ASIC1a L280C [2] = target: T1, human ASIC1a L280C; test: MTSET modification of the cysteine mutant (residual current read-out), closed vs desensitized state; type: cell-based
Method: as §1
The two-electrode voltage clamp technique was used to measure whole cell currents from Xenopus oocytes heterologously expressing ASIC1a channels as described. Electrodes were pulled using a Sutter P-97 micropipette puller (Sutter Instrument Co., Novato, CT) and filled with 3 M KCl (pipette resistance of 0.5–2 MΩ). Oocyte recordings were done in a modified RC-Z3 250 µl oocyte recording chamber (Warner Instruments, Hamden, CT). Data were acquired using an Oocyte Clamp OC-725 Amplifier (Warner Instruments, Hamden, CT) and a Powerlab 4SP digitizer with CHART5 software (ADI Instruments, Colorado Springs, CO). Except where noted, the extracellular solution contained (in mM): 116 NaCl, 2 KCl, 5 HEPES, 5 MES, 2 CaCl2, 1 MgCl2, with pH adjusted using 1N NaOH. The solution exchange rate in the recording chamber was ~1 ml/s. The holding potential was -60 mV unless otherwise noted. [2-(Trimethylammonium)ethyl] Methanethiosulfonate Bromide (MTSET) was purchased from Toronto Research Chemicals, Inc. (Ontario, Canada). FRRFamide peptide (FRRFa) and FRRF (no amide) were synthesized from EZBiolab, Inc. (Westfield, IN).
Oocytes were maintained at a basal pH of 7.4 and maximal currents were established with application of pH 5.0. Currents were allowed to decay for at least 60 s. The control residual current was determined by normalizing the current remaining at 60 s to the peak amplitude (Iresidual/Itransient). After recovery, 300 µM MTSET was applied at pH 7.4 for the indicated duration and excess MTSET was washed away with at least 10 mL of pH 7.4 solution. The pH-dependence of activation and steady-state desensitization were measured as described above. During experiments using MTSET, the effect on residual current decreased slightly over time. […]

human ASIC1a L280C [3] = target: T1, human ASIC1a L280C; test: FRRFa / FRRF (no amide) modulation of acid-evoked currents, two-electrode voltage clamp in Xenopus oocytes; type: cell-based; conditions: mean ± SEM, SEM
Method: as §1, with “performed. […]” for “performed.”
as §2

wildtype human ASIC1a = target: T2, wildtype human ASIC1a (Homo sapiens, UniProt P78348); test: FRRFa modulation of acid-evoked currents, two-electrode voltage clamp in Xenopus oocytes; type: cell-based
T2 construct: expressed in transfected cells; host or cells: Xenopus laevis oocytes (nuclear injection of pMT3 expression plasmid)
T2 sequence (P78348 1-528): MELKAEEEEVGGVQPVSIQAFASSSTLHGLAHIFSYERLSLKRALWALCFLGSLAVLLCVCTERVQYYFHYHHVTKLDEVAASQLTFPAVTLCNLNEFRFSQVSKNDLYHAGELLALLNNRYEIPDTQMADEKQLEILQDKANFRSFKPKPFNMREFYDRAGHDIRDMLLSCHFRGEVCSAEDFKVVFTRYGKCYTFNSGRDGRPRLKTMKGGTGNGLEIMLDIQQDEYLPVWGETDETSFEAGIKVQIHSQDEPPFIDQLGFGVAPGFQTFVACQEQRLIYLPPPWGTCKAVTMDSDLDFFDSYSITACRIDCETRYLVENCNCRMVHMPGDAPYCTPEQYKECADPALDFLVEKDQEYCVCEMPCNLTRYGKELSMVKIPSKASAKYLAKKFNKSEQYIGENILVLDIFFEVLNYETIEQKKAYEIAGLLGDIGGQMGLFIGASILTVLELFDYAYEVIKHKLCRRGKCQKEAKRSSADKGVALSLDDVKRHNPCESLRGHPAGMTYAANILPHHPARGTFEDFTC
Method: as §1, with “performed. […]” for “performed.”
as §2

SMILES | % residual current after MTS (wildtype ASIC1a; 300 µM MTSET at pH 7.4, before MTS 0.16 ± 0.05%, n = 3, p = 0.3) | τinact after MTS (wildtype ASIC1a; 300 µM MTSET at pH 7.4, before MTS 1.8 ± 0.2 s, n = 3, p = 0.9) | steady-state desensitization, conditioning pH6.7/7.4 after MTS (wildtype ASIC1a; 300 µM MTSET, before MTS 1.8 ± 0.7%, n = 3, p = 0.2) | activation pH6.5/5.0 after MTS (wildtype ASIC1a; 300 µM MTSET, before MTS 66 ± 10%, n = 3, p = 0.7) | time until MTSET modulation plateaued in presence of vehicle (human ASIC1a L280C [1]) | run down of MTSET effect: decrease in residual current with repeated pH 5.0 applications (human ASIC1a L280C [2]; L280C after MTSET modification, n = 8, p = 0.003 paired t-test) | run down of MTSET effect: decrease in inactivation rate with repeated pH 5.0 applications (human ASIC1a L280C [2]; L280C after MTSET modification, n = 8, p = 0.01 paired t-test) | run down of MTSET effect: decrease in peak amplitude with repeated pH 5.0 applications (human ASIC1a L280C [2]; L280C after MTSET modification, n = 8, p = 0.02 paired t-test) | time until MTSET modification observed (increase in residual current) (human ASIC1a L280C [2]; L280C closed state, pH 6.8, 5.0 mM Ca2+ conditioning, 300 µM MTSET) | MTSET modification in the desensitized state (human ASIC1a L280C [2]; L280C desensitized state, pH 6.8, nominal Ca2+-free conditioning, 300 µM MTSET up to 6 minutes) | increase in τinact with FRRFamide (human ASIC1a L280C [3]; 100 µM FRRFa vs control, n = 17, p = 6x10^-5 vs wildtype) | EC50 (human ASIC1a L280C [3]; responses normalized to 100 µM FRRFa, n = 6-8, p = 0.34 vs wildtype, read-out: EC50 of FRRFa modulation (effect on residual current)) | increase in τinact with FRRFamide (wildtype human ASIC1a; 100 µM FRRFa vs control, mean ± SEM, n = 14, SEM) | difference in response between 100µM and 300µM FRRFa (wildtype human ASIC1a; residual current, n = 5, p = 0.69 paired t-test (not significant)) | EC50 (wildtype human ASIC1a; responses normalized to 100 µM FRRFa, mean ± SEM, n = 6-8, SEM, read-out: EC50 of FRRFa modulation (effect on residual current))
C[N+](C)(C)CCSS(C)(=O)=O.[Br-] [MTSET, [2-(Trimethylammonium)ethyl] Methanethiosulfonate Bromide] | 0.31 ± 0.04% | 1.8 ± 0.2 s | 1.5 ± 0.6% | 62 ± 3% | 5 min | 17 ± 5% | 31 ± 9% | 5% | ≤ 2 min | did not appreciably modify L280C | – | – | – | – | –
N=C(N)NCCC[C@H](NC(=O)[C@H](CCCNC(=N)N)NC(=O)[C@@H](N)Cc1ccccc1)C(=O)N[C@@H](Cc1ccccc1)C(N)=O [FRRFa, FRRFamide] (H-FRRF-NH2) | – | – | – | – | – | – | – | – | – | – | 131 ± 16% | 14 ± 4 µM | 45 ± 6% | 10.42% ± 11.25 | 20 ± 4 µM
